Results on 22 compounds are retold here after US12344614B2, “Benzodiazepine derivatives as GABA a GAMMA1 PAM” (Hoffmann-La Roche Inc., priority 2021, dated 2025).

Assay [1] deals with human GABAA α5β2γ1 receptor (Homo sapiens (Human), UniProt P31644+Q8N1C3). Put plainly: Radioligand binding assay, competition for [3H]RO7239181, membranes from HEK293F cells. As for the experimental part:
The affinity of compounds at GABAA γ1 subunit-containing receptors was measured by competition for [^3H]RO7239181 (67.3 Ci/mmol; Roche) binding to membranes from HEK293F cells (ThermoFisher R79007) expressing human (transiently transfected) receptors of composition α5β2γ1, α2β2γ1, α1β2γ1. For better protein expression of the α2 subunit-containing receptors, the 28 amino acid long signal peptide (Met1 to Ala28) of the human GABAA α2 subunit was substituted by the 31 amino acid long signal peptide (Met1 to Ser31) of human GABAA α5 subunit.
Harvested pellets from HEK293F cells expressing the different GABAA receptor subtypes were resuspended in Mannitol Buffer pH 7.2-7.4 (Mannitol 0.29M, Triethylamine 10 mM, Acetic acid 10 mM, EDTA 1 mM plus protease inhibitors (20 tablets Complete, Roche Diagnostics Cat. No. 05 056 489 001 per liter)), washed two times and then resuspended at 1:10 to 1:15 dilution in the same buffer. Cell disruption was performed by stirring the suspension in a Parr vessel #4637 at 435 psi for 15 minutes, and then the suspensions were centrifuged at 1000×g for 15 minutes at 4° C. (Beckman Avanti J-HC; rotor JS-4.2). The supernatant (S1) was transferred in a 21 Schott flask and the pellet (P1) was resuspended with Mannitol Buffer up to 175 ml. The resuspended pellet was transferred into a 250 ml Corning centrifugal beaker and centrifuged at 1500×g for 10 minutes at 4° C. (Beckman Avanti J-HC; rotor JS-4.2). The supernatant (S1) was then transferred in the 21 Schott flask and the pellet was discarded. The supernatants (S1) were centrifuged in 500 ml Beckman polypropylene centrifugal beaker at 15′000×g for 30 minutes at 4° C. (Beckman Avanti J-20 XP; rotor JLA-10.500). The pellet (P2) was resuspended with Mannitol Buffer 1:1 and frozen at −80° C. The supernatant (S2) was centrifuged in 100 ml Beckman polypropylene centrifugal tubes at 48000×g for 50 minutes at 4° C. (Beckman Avanti J-20 XP; rotor JA-18). The supernatant (S3) was discarded and the pellet (P3) was resuspended with 1:1 Mannitol Buffer. The P2 and P3 protein concentration was determined with the BIORAD Standard assay method with bovine serum albumin as standard and measured on the NANO-Drop 1000. The membrane suspension was aliquots (500 μl per tube) and stored at −80° C. until required.
Membrane homogenates were resuspended and polytronised (Polytron PT1200E Kinematica AG) in Potassium Phosphate 10 mM, KCl 100 mM binding buffer at pH 7.4 to a final assay concentration determined with a previous experiment.
Radioligand binding assays were carried out in a volume of 200 μL (96-well plates) which contained 100 μL of cell membranes, [^3H]RO7239181 at a concentration of 1.5 nM (α5β2γ1) or 20-30 nM (α1β2γ1, α2β2γ1) and the test compound in the range of [0.3-10000]×10^−9 M. Nonspecific binding was defined by 10×10^−6 (α5β2γ1) and 30×10^−6 M RO7239181 and typically represented less than 5% (α5β2γ1) and less than 20% (α1β2γ1, α2β2γ1) of the total binding. Assays were incubated to equilibrium for 1 hour at 4° C. and then, membranes were filtered onto unifilter (96-well white microplate with bonded GF/C filters preincubated 20-50 minutes in 0.3% Polyethylenimine) with a Filtermate 196 harvester (Packard BioScience) and washed 4 times with cold Potassium Phosphate 10 mM pH 7.4, KCl 100 mM binding buffer. After anhydrousing, filter-retained radioactivity was detected by liquid scintillation counting. Ki values were calculated using Excel-Fit (Microsoft) and are the means of two determinations.
Representative test results, obtained by the above described assay measuring binding affinity to HEK293 cells expressing human (h) receptors, are shown in the Table 1.

In assay [2] the target is human GABAA α1β2γ1 receptor (Homo sapiens (Human), UniProt P14867+Q8N1C3). The assay is described as above.

Where two headings read alike, the source gives them in different places.

Usually Ki stands for a measure of affinity in units of concentration, obtained from inhibition or displacement. In assay [1], `COC1CN(C(=O)c2ncn3c2CN=C(c2cc(O)ccc2F)c2c-3ccc(C(F)(F)F)c2Cl)C1` [Example 15, [7-chloro-6-(2-fluoro-5-hydroxy-phenyl)-8-(trifluoromethyl)-4H-imidazo[1,5-a][1,4]benzodiazepin-3-yl]-(3-methoxyazetidin-1-yl)methanone] had an inhibition constant Ki of 0.85 nM.
As to `C[C@@H]1N=C(c2cc(O)ccc2F)c2c(ccc(Cl)c2Cl)-n2ccc(=O)nc21` [Example 5, (5S)-8,9-dichloro-7-(2-fluoro-5-hydroxy-phenyl)-5-methyl-5H-pyrimido[1,2-a][1,4]benzodiazepin-3-one], the results for the Ki in assay [2] and in assay [1] were 3.3 nM and 0.39 nM, respectively.
The matching figures for `Cc1nnc2n1-c1ccc(C(F)(F)F)c(Cl)c1C(c1nc(O)ccc1Cl)=N[C@H]2C` [Example 22, 5-chloro-6-[(4S)-7-chloro-1,4-dimethyl-8-(trifluoromethyl)-4H-[1,2,4]triazolo[4,3-a][1,4]benzodiazepin-6-yl]pyridin-2-ol]: 42.5 nM and 20.9 nM.
For the compound `C[C@@H]1N=C(c2nc(O)ccc2F)c2c(ccc(C(F)(F)F)c2Cl)-n2cc(C(=O)N3CCC3)nc21` [Example 30, azetidin-1-yl-[(4S)-7-chloro-6-(3-fluoro-6-hydroxy-2-pyridyl)-4-methyl-8-(trifluoromethyl)-4H-imidazo[1,2-a][1,4]benzodiazepin-2-yl]methanone], in assay [1], the inhibition constant Ki amounted to 8.77 nM.
Regarding `Cc1ccc2c(c1Cl)C(c1cc(O)ccc1F)=NCC(=O)N2C` [Example 2, 6-chloro-5-(2-fluoro-5-hydroxy-phenyl)-1,7-dimethyl-3H-1,4-benzodiazepin-2-one], the Ki is 3.49 nM in assay [2] and 0.53 nM in assay [1].
Consider `O=c1ccn2c(n1)CN=C(c1cc(O)ccc1F)c1c-2ccc(C(F)(F)F)c1Cl` [Example 11, 8-chloro-7-(2-fluoro-5-hydroxy-phenyl)-9-(trifluoromethyl)-5H-pyrimido[1,2-a][1,4]benzodiazepin-3-one], for which the Ki in assay [2] was determined as 5.17 nM; in assay [1] it was 1.54 nM.
With `Cc1cn2c(n1)[C@H](C)N=C(c1nc(O)ccc1F)c1c-2ccc(C(F)(F)F)c1Cl` [Example 28, 6-[(4S)-7-chloro-2,4-dimethyl-8-(trifluoromethyl)-4H-imidazo[1,2-a][1,4]benzodiazepin-6-yl]-5-fluoro-pyridin-2-ol], the figures for the Ki in assay [2] and in assay [1] were 19.9 nM and 2.07 nM, respectively.
Consider `CN1C(=O)CN=C(c2cc(O)ccc2F)c2c1ccc(Cl)c2Cl` [Example 1, 6,7-dichloro-5-(2-fluoro-5-hydroxy-phenyl)-1-methyl-3H-1,4-benzodiazepin-2-one], for which the Ki in assay [2] is 2.9 nM; in assay [2] (read-out: Ki h-GABAA α1β2γ1, [3H]RO7239181 20-30 nM, HEK293F membranes, 1 hour at 4° C., mean of two determinations), 2.9 nM; in assay [1], 0.34 nM.
Turning to `Cc1nc2n(n1)-c1ccc(C(F)(F)F)c(Cl)c1C(c1nc(O)ccc1F)=N[C@H]2C` [Example 25, 6-[(4S)-7-chloro-2,4-dimethyl-8-(trifluoromethyl)-4H-[1,2,4]triazolo[1,5-a][1,4]benzodiazepin-6-yl]-5-fluoro-pyridin-2-ol], the Ki in assay [2] was determined as 25.3 nM; in assay [1], 2.32 nM.
As for `COC1CN(C(=O)c2nc3n(n2)-c2ccc(C(F)(F)F)c(Cl)c2C(c2cc(O)ccc2F)=NC3)C1` [Example 16, [7-chloro-6-(2-fluoro-5-hydroxy-phenyl)-8-(trifluoromethyl)-4H-[1,2,4]triazolo[1,5-a][1,4]benzodiazepin-2-yl]-(3-methoxyazetidin-1-yl)methanone], the Ki in assay [2] ([3H]RO7239181 20-30 nM, HEK293F membranes, 1 hour at 4° C., mean of two determinations, read-out: Ki h-GABAA α1β2γ1) stood at 11.4 nM; in assay [1], 1.04 nM.
`CN1C(=O)CN=C(c2c(F)ccc(O)c2F)c2c1ccc(Cl)c2Cl` [Example 12, 6,7-dichloro-5-(2,6-difluoro-3-hydroxy-phenyl)-1-methyl-3H-1,4-benzodiazepin-2-one] came in with an inhibition constant (Ki) in assay [1] of 0.46 nM.
Take `Cc1nnc2n1-c1ccc(Cl)c(Cl)c1C(c1cc(O)ccc1F)=N[C@H]2C` [Example 4, 4-fluoro-3-[(4S)-7,8-dichloro-1,4-dimethyl-4H-[1,2,4]triazolo[4,3-a][1,4]benzodiazepin-6-yl]phenol]: the figures for the inhibitory constant (Ki) in assay [2] and in assay [1] were 3.35 nM and 0.38 nM, respectively.
For the compound `C[C@@H]1N=C(c2nc(O)ccc2F)c2c(ccc(C(F)(F)F)c2Cl)-n2c1nc1c2CCC1` [Example 24, 6-[(10S)-6-chloro-10-methyl-5-(trifluoromethyl)-1,9,12-triazatetracyclo[9.6.0.02,7.013,17]heptadeca-2(7),3,5,8,11,13(17)-hexaen-8-yl]-5-fluoro-pyridin-2-ol], in assay [1], affinity was put at a Ki of 8.6 nM.
Consider `Cc1nnc2n1-c1ccc(Cl)c(Cl)c1C(c1c(F)ccc(O)c1F)=NC2` [Example 13, 3-(7,8-dichloro-1-methyl-4H-[1,2,4]triazolo[4,3-a][1,4]benzodiazepin-6-yl)-2,4-difluoro-phenol], for which the Ki in assay [1] was 0.4 nM.
Same read-out and setting: in the case of `Oc1ccc(F)c(C2=NCc3nncn3-c3ccc(C(F)(F)F)c(Cl)c32)c1` [Example 10, 3-[7-chloro-8-(trifluoromethyl)-4H-[1,2,4]triazolo[4,3-a][1,4]benzodiazepin-6-yl]-4-fluoro-phenol] it was 0.27 nM; in that of `Cc1nnc2n1-c1ccc(C(F)(F)F)c(Cl)c1C(c1cc(O)ccc1F)=N[C@H]2C` [Example 17, 4-fluoro-3-[(4S)-7-chloro-1,4-dimethyl-8-(trifluoromethyl)-4H-[1,2,4]triazolo[4,3-a][1,4]benzodiazepin-6-yl]phenol], 0.99 nM; in that of `Cc1nc2n(n1)-c1ccc(C(F)(F)F)c(Cl)c1C(c1nc(O)ccc1Cl)=N[C@H]2C` [Example 29, 5-chloro-6-[(4S)-7-chloro-2,4-dimethyl-8-(trifluoromethyl)-4H-[1,2,4]triazolo[1,5-a][1,4]benzodiazepin-6-yl]pyridin-2-ol], 3.63 nM.
Compound `Cc1cnc2n1-c1ccc(C(F)(F)F)c(Cl)c1C(c1nc(O)ccc1F)=N[C@H]2C` [Example 23, 6-[(4S)-7-chloro-1,4-dimethyl-8-(trifluoromethyl)-4H-imidazo[1,2-a][1,4]benzodiazepin-6-yl]-5-fluoro-pyridin-2-ol] came in with a Ki in assay [1] of 3.08 nM.
Still for that read-out and setting: in the case of `O=c1ccn2c(n1)CN=C(c1cc(O)ccc1F)c1c-2ccc(Cl)c1Cl` [Example 6, 8,9-dichloro-7-(2-fluoro-5-hydroxy-phenyl)-5H-pyrimido[1,2-a][1,4]benzodiazepin-3-one] it was 0.39 nM; in that of `O=c1ccn2c(n1)CN=C(c1c(F)ccc(O)c1F)c1c-2ccc(Cl)c1Cl` [Example 14, 8,9-dichloro-7-(2,6-difluoro-3-hydroxy-phenyl)-5H-pyrimido[1,2-a][1,4]benzodiazepin-3-one], 0.85 nM; in that of `COC1CN(C(=O)c2nc3n(n2)-c2ccc(Cl)c(Cl)c2C(c2cc(O)ccc2F)=NC3)C1` [Example 7, [7,8-dichloro-6-(2-fluoro-5-hydroxy-phenyl)-4H-[1,2,4]triazolo[1,5-a][1,4]benzodiazepin-2-yl]-(3-methoxyazetidin-1-yl)methanone], 1.4 nM.
Still for that read-out and setting: in the case of `C[C@@H]1N=C(c2c(F)ccc(O)c2F)c2c(ccc(Cl)c2Cl)-n2ccc(=O)nc21` [Example 18, (5S)-8,9-dichloro-7-(2,6-difluoro-3-hydroxy-phenyl)-5-methyl-5H-pyrimido[1,2-a][1,4]benzodiazepin-3-one] it was 1.3 nM.
